Test results from patent US6905852B1, “Herbicide-resistant protoporphyrinogen oxidase isolated from Nicotiana tabacum” (Nihon Nohyaku Co., Ltd., priority 1997, dated 2005).

Key:
Type in all cases: cell-based, Nicotiana tabacum
[1] = test system: tobacco callus; assay: Sensitivity of tobacco callus to compound H (survival)
Experimental: Tobacco (Nicotiana tabacum CV. Xanthi NC) was grown to 40 cm tall in a green house. And a leaf was cut, and the leaf was cut to square-shape of 5 cm width by a knife, then immersed in 70% ethanol for 30 seconds and in an aqueous solution of sodium hypochlorite (the effective concentration of chlorine was 1%) for 15 minutes to conduct surface-sterilization. After washing it for three times by sterilized water and removal of epidermis, the leaf fragment was suspended in 0.6M manitol (pH 5.8) containing an enzyme solution (1% cellulase onozuka R-10 and 0.05% macerozyme R-10 (manufactured by Yakult Co., Ltd.)) at 26° C. for three hours. After the enzyme treatment, protoplasts were washed with centrifugation by Murasige-Skoog (MS) medium for three times, and the obtained protoplast was suspended into MS solid medium containing 0.6% agar and 1 ppm of NAA and BA, to make a cell number of 10^8/ml, and pored into a dish at 1 cm thick. The protoplast was cultured at 27° C. under darkness to regenerate a callus. Four weeks after the incubation, the agar medium containing a callus grown up to about 1 mm large, was cut to rectangular shape having 1 cm width, and put on MS solid medium containing various concentration of the compound H (4-chloro-3-[2,4-dichloro-5(2-propenyloxy)phenyl]-5-difluoromethoxy-1-methyl-1H-pyrazole, described in Toku Kai Hei 3-163063), and the sensitivity of tobacco callus to photobleaching herbicide was examined. As shoen in Table 1, it become apparent that the callus completely dies at 10 nM.

[2] = test system: sensitive cell line; assay: Accumulation of protoporphyrin IX in callus; conditions: 1,200 nM compound H
[3] = test system: tobacco callus; assay: Selection course of callus lines tolerant to the photobleaching herbicide
Experimental: Using a medium containing the compound H containing two times concentration (20 nM) of the concentration at which tobacco callus completely dies, the selection of tobacco callus tolerant to photobleaching herbicide has been started. 1×10^5 of tobacco callus have been selected (Table 2), in the course of re-generation from 1×10^10 of the protoplast.
number of protoplast given: 1×10^10

[4] = test system: ETR-253; assay: Accumulation of protoporphyrin IX in callus; conditions: 1,200 nM compound H
Experimental: (§1) The present inventors have tried to analyze the resistant mechanism in the resistant strain tolerant to photobleaching herbicide. It has been reported that in a plant treated by photobleaching herbicide, protoporphyrin IX is accumulated, the present inventors tried to measure the accumulation of protoporphyrin IX periodically. A resistant callus which has been subcultured in MS liquid medium containing 1,200 nM of compound H under light condition was cultured for 24 hours in a dark condition, then transplanted into MS liquid medium containing 1,200 nM of compound H, and after 6, 12, 18, 24, 32 and 48 hours later, the callus was collected, and protoporphyrin IX was measured. The extraction and assay of the protoporphyrin 1× from the callus were conducted as follows (Matringe, M. et al. (1989) Biochem, J. 260:231-235.). That is, 500 mg (wet weight) of the callus was homogenized in a mortar, and extracted with 7.5 ml of acetone: 1N NH4OH (9:1). The extract was centrifuged at 3,000×g for 10 minutes, then the supernatant was collected. To the supernatant 2.5 ml of hexane was added and mixed sufficiently, then, the lower layer was recovered. Further, after washing with hexane two twice, the amount of protoporphyrin IX obtained in the lower layer was measured from the value of Ex 405 nm-Em 631.5 nm by a fluorescence spectrophotometer. All the extraction procedures were conducted under the safety light.

[5] = test system: ETR-056 line; assay: Accumulation of protoporphyrin IX in callus; conditions: 1,200 nM compound H
Experimental: as §1

[6] = test system: ETR-245; assay: Accumulation of protoporphyrin IX in callus; conditions: 1,200 nM compound H
Experimental: as §1

What does the source list for `C=CCOc1cc(-c2nn(C)c(OC(F)F)c2Cl)c(Cl)cc1Cl` [compound H, 4-chloro-3-[2,4-dichloro-5(2-propenyloxy)phenyl]-5-difluoromethoxy-1-methyl-1H-pyrazole]?
Survival Rate (%) ([1]; 2.5 nM): 30%; Survival Rate (%) ([1]; 5 nM): 10%; Survival Rate (%) ([1]; 8 nM (last line of the table)): 0%; Survival Rate (%) ([1]; 10 nM): 0%; Survival Rate (%) ([1]; 20 nM): 0%; Survival Rate (%) ([1]; 40 nM): 0%; concentration at which the callus completely dies ([1]; tobacco callus on MS solid medium): 10 nM; amount of protoporphyrin IX ([2]; 24 hours): 1.3 μg/g fresh weight; amount of protoporphyrin IX ([2]; 48 hours): 1.9 μg/g fresh weight; Number of resistant cell lines ([3]; 20 nM, protoplast given 1×10^10): 100,000; Number of resistant cell lines ([3]; 30 nM): 50,000; Number of resistant cell lines ([3]; 50 nM): 40,000; Number of resistant cell lines ([3]; 75 nM): 7,200; Number of resistant cell lines ([3]; 150 nM): 254; Number of resistant cell lines ([3]; 300 nM): 120; Number of resistant cell lines ([3]; 600 nM): 66; Number of resistant cell lines ([3]; 1200 nM): 46; Number of resistant cell lines ([3]; 2,400 nM): 36; Number of resistant cell lines ([3]; 5,000 nM): 0; accumulation of protoporphyrin IX [4]: little accumulation; amount of protoporphyrin IX ([5]; 24 hours): 1.7 μg/g fresh weight; amount of protoporphyrin IX ([5]; 48 hours): 4.6 μg/g fresh weight; accumulation of protoporphyrin IX [6]: little accumulation
